# From patent US20240123073A1, “NOVEL RIPK1 KINASE TARGETING PROTACS AND METHODS OF USE THEREOF” (Baylor College of Medicine, priority 2020, published 2024)
# Biological target: T1, RIPK1 (Homo sapiens, UniProt Q13546)
# T1 construct: endogenous in cells
# T1 sequence (Q13546 1-671): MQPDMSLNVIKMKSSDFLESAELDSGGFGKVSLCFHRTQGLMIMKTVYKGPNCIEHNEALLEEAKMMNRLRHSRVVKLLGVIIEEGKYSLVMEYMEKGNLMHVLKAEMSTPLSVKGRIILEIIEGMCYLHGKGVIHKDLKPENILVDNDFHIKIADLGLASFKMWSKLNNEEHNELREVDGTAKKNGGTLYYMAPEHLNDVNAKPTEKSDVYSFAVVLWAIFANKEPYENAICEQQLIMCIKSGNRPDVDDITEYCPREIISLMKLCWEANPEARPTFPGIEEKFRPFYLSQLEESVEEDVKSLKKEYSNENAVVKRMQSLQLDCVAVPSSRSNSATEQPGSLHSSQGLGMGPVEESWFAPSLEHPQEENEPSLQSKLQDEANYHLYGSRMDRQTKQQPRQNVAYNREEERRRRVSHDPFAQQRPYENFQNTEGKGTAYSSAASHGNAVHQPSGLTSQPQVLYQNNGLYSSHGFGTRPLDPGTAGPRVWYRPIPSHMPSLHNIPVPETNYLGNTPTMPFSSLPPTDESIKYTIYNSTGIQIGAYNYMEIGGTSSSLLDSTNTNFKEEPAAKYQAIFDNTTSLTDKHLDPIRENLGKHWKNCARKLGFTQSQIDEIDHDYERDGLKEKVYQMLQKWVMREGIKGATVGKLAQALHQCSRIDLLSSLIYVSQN
# Assay: RIPK1 degradation Western Blot assay
# Type: cell-based
# Conditions: human cells, 24 h incubation at 37° C., read-out: Degradation Activity (DC50, concentration at which 50% of RIPK1 kinase has been degraded)
# Procedure: Cells were seeded in 6-well cell culture plates overnight prior to treatment and incubated with the indicated doses of compounds for 24 h at 37° C. Then, cell pellets were collected and resuspended with RIPA lysis buffer, which was added with 1% […] inhibitor and phosphatase inhibitor Cocktail. Whole-cell protein lysates were sonicated on ice for 20 seconds and centrifuged at 12 000 rpm for 20 min at 4° C. The supernatants were determined using the BCA method. Proteins were separated by sodium dodecyl sulfate-polyacrylamide gel electrophoresis and transferred to polyvinylidene fluoride membranes. The membranes were incubated with blocking buffer for 1 h. Then, the membranes were incubated at 4° C. overnight with the primary antibodies. After washing, the membranes were incubated for 1 h at room temperature with the secondary antibody and washed again. Changes in protein expression was detected using an enhanced chemiluminescence detection reagent. RIPK1 antibody was purchased from Santa Cruz.
# The activities of exemplary compounds as described herein, measured in terms of the degradation concentration (DC50 representing the concentration at which 50% of the target, in this case RIPK1 kinase, has been degraded), are provided in Table 11. In Table 11, a DC50 value less than 1 μM is indicated as an “A;” a DC50 value from 1 μM to 10 μM is indicated as a “B” and a DC50 value of greater than 10 μM is indicated as a “C.”
row,SMILES,DC50
1,"Cc1ncsc1-c1ccc([C@H](C)NC(=O)[C@@H]2C[C@@H](O)CN2C(=O)[C@@H](NC(=O)CCC(=O)NCCCn2cc(-c3ccc4c(c3)CCN4C(=O)Cc3cccc(OC(F)(F)F)c3)c3c(N)ncnc32)C(C)(C)C)cc1 [Compound 1, N1-(3-(4-amino-5-(1-(2-(3-(trifluoromethoxy)phenyl)acetyl)indolin-5-yl)-7H-pyrrolo[2,3-d]pyrimidin-7-yl)propyl)-N4-((S)-1-((2S,4R)-4-hydroxy-2-(((S)-1-(4-(4 methylthiazol-5-yl)phenyl)ethyl)carbamoyl)pyrrolidin-1-yl)-3,3-dimethyl-1-oxobutan-2-yl)succinimide]",1 to 10 µM
2,"Nc1ncnc2c1c(-c1ccc3c(c1)CCN3C(=O)Cc1cccc(OC(F)(F)F)c1)cn2CCCNC(=O)CCOCCOCCOCCNc1cccc2c1C(=O)C(C1CCC(=O)NC1=O)C2=O (centres unmarked) [Compound 8, N-(3-(4-amino-5-(1-(2-(3-(trifluoromethoxy)phenyl)acetyl)indolin-5-yl)-7H-pyrrolo[2,3-d]pyrimidin-7-yl)propyl)-3-(2-(2-(2-((2-(2,6-dioxopiperidin-3-yl)-1,3-dioxo-2,3-dihydro-1H-inden-4-yl)amino)ethoxy)ethoxy)ethoxy)propanamide]",1 to 10 µM
3,"Nc1ncnc2c1c(-c1ccc3c(c1)CCN3C(=O)Cc1cccc(OC(F)(F)F)c1)cn2CCCNC(=O)CCCCCCCCNC(=O)[C@@H]1NC2(CCCCC2)[C@@]2(C(=O)Nc3cc(Cl)ccc32)[C@H]1c1cccc(Cl)c1F [Compound 10, (3′R,4'S,5′R)-N-(9-((3-(4-amino-5-(1-(2-(3-(trifluoromethoxy)phenyl)acetyl)indolin-5-yl)-7H-pyrrolo[2,3-d]pyrimidin-7-yl)propyl)amino)-9-oxononyl)-6″-chloro-4′-(3-chloro-2-fluorophenyl)-2″-oxodispiro[cyclohexane-1,2′-pyrrolidine-3′,3″-indoline]-5′-carboxamide]",1 to 10 µM
4,O=C1CCC(C2C(=O)c3cccc(NCCOCCOCCOCCC(=O)N4CCC(C(=O)N5N=CCC5c5ccccc5)CC4)c3C2=O)C(=O)N1 (centres unmarked) [Compound 11],> 10 µM
5,O=C1CCC(C2C(=O)c3cccc(NCCOCCOCCC(=O)N4CCC(C(=O)N5N=CCC5c5ccccc5)CC4)c3C2=O)C(=O)N1 (centres unmarked) [Compound 12],> 10 µM
6,"Cc1ncsc1-c1ccc([C@H](C)NC(=O)[C@@H]2C[C@@H](O)CN2C(=O)[C@@H](NC(=O)CCCCCCCCC(=O)N2CCC(C(=O)N3N=CCC3c3ccccc3)CC2)C(C)(C)C)cc1 (stereo partly drawn) [Compound 13, (2S,4R)-1-((2S)-3,3-dimethyl-2-(10-oxo-10-(4-(5-phenyl-4,5-dihydro-1H-pyrazole-1-carbonyl)piperidin-1-yl)decanamide)butanoyl)-4-hydroxy-N—((S)-1-(4-(4-methylthiazol-5-yl)phenyl)ethyl)pyrrolidine-2-carboxamide]",> 10 µM
7,"O=C(NCCOCCC(=O)N1CCC(C(=O)N2N=CCC2c2ccccc2)CC1)[C@@H]1NC2(CCCCC2)[C@@]2(C(=O)Nc3cc(Cl)ccc32)[C@H]1c1cccc(Cl)c1F (stereo partly drawn) [Compound 15, (3′R,4'S,5′R)-6″-chloro-4′-(3-chloro-2-fluorophenyl)-2″-oxo-N-(2-(3-oxo-3-(4-(5-phenyl-4,5-dihydro-1H-pyrazole-1-carbonyl)piperidin-1-yl)propoxy)ethyl)dispiro[cyclohexane-1,2′-pyrrolidine-3′,3″-indoline]-5′-carboxamide]",1 to 10 µM
8,"O=C1CCC(N2C(=O)c3cccc(NCCOCCOCCOCCNC(=O)c4ccnc(N5CCC(C(=O)N6N=CCC6c6ccccc6)CC5)n4)c3C2=O)C(=O)N1 (centres unmarked) [Compound 19, N-(2-(2-(2-(2-((2-(2,6-dioxopiperidin-3-yl)-1,3-dioxoisoindolin-4-yl)amino)ethoxy)ethoxy)ethoxy)ethyl)-2-(4-(5-phenyl-4,5-dihydro-1H-pyrazole-1-carbonyl)piperidin-1-yl)pyrimidine-4-carboxamide]",1 to 10 µM
9,"O=C(NCCOCCOCCOCCNC(=O)[C@@H]1NC2(CCCCC2)[C@@]2(C(=O)Nc3cc(Cl)ccc32)[C@H]1c1cccc(Cl)c1F)c1ccnc(N2CCC(C(=O)N3N=CCC3c3ccccc3)CC2)n1 (stereo partly drawn) [Compound 20, (3′R,4'S,5′R)-6″-chloro-4′-(3-chloro-2-fluorophenyl)-2″-oxo-N-(1-oxo-1-(2-(4-(5-phenyl-4,5-dihydro-1H-pyrazole-1-carbonyl)piperidin-1-yl)pyrimidin-4-yl)-5,8,11-trioxa-2-azatridecan-13-yl)dispiro[cyclohexane-1,2′-pyrrolidine-3′,3″-indoline]-5′-carboxamide]",1 to 10 µM
10,"O=C1CCC(N2C(=O)c3cccc(NCCOCCOCCOCCNC(=O)c4ccc(-c5cc(N6CCC(C(=O)N7N=CCC7c7ccccc7)CC6)ncn5)cc4)c3C2=O)C(=O)N1 (centres unmarked) [Compound 21, N-(2-(2-(2-(2-((2-(2,6-dioxopiperidin-3-yl)-1,3-dioxoisoindolin-4-yl)amino)ethoxy)ethoxy)ethoxy)ethyl)-4-(6-(4-(5-phenyl-4,5-dihydro-1H-pyrazole-1-carbonyl)piperidin-1-yl)pyrimidin-4-yl)benzamide]",> 10 µM
11,"Cc1ncsc1-c1ccc([C@H](C)NC(=O)[C@@H]2C[C@@H](O)CN2C(=O)[C@@H](NC(=O)CCOCCOCCOCCNC(=O)c2ccc(-c3cc(N4CCC(C(=O)N5N=CCC5c5ccccc5)CC4)ncn3)cc2)C(C)(C)C)cc1 (stereo partly drawn) [Compound 23, (2S,4R)-1-((16S)-16-(tert-butyl)-1,14-dioxo-1-(4-(6-(4-(5-phenyl-4,5-dihydro-1H-pyrazole-1-carbonyl)piperidin-1-yl)pyrimidin-4-yl)phenyl)-5,8,11-trioxa-2,15-diazaheptadecane-17-oyl)-4-hydroxy-N—((S)-1-(4-(4-methylthiazol-5-yl)phenyl)ethyl)pyrrolidine-2-carboxamide]",> 10 µM
12,"Cc1ncsc1-c1ccc([C@H](C)NC(=O)[C@@H]2C[C@@H](O)CN2C(=O)[C@@H](NC(=O)CCOCCOCCOCCOCCn2cc(-c3ccc4c(c3)CCN4C(=O)Cc3cccc(OC(F)(F)F)c3)c3c(N)ncnc32)C(C)(C)C)cc1 [Compound 29, (2S,4R)-1-((S)-1-(4-amino-5-(1-(2-(3-(trifluoromethoxy)phenyl)acetyl)indolin-5-yl)-7H-pyrrolo[2,3-d]pyrimidin-7-yl)-17-(tert-butyl)-15-oxo-3,6,9,12-tetraoxa-16-azaoctadecan-18-oyl)-4-hydroxy-N—((S)-1-(4-(4-methylthiazol-5-yl)phenyl)ethyl)pyrrolidine-2-carboxamide]",< 1 µM
13,Cc1ncsc1-c1ccc([C@H](C)NC(=O)[C@@H]2C[C@@H](O)CN2C(=O)[C@@H](NC(=O)CCc2ccc(C#Cc3ccc(C(=O)NCCCn4cc(-c5ccc6c(c5)CCN6C(=O)Cc5cccc(OC(F)(F)F)c5)c5c(N)ncnc54)cc3)cn2)C(C)(C)C)cc1 [Compound 33],< 1 µM
14,Cc1ncsc1-c1ccc([C@H](C)NC(=O)[C@@H]2C[C@@H](O)CN2C(=O)[C@@H](NC(=O)CCc2ccc(C#Cc3ccc(CCC(=O)NCCCn4cc(-c5ccc6c(c5)CCN6C(=O)Cc5cccc(OC(F)(F)F)c5)c5c(N)ncnc54)cc3)cn2)C(C)(C)C)cc1 [Compound 34],< 1 µM
15,Cc1ncsc1-c1ccc([C@H](C)NC(=O)[C@@H]2C[C@@H](O)CN2C(=O)[C@@H](NC(=O)c2ccc(C#Cc3ccc(C(=O)NCCCn4cc(-c5ccc6c(c5)CCN6C(=O)Cc5cccc(OC(F)(F)F)c5)c5c(N)ncnc54)cc3)cn2)C(C)(C)C)cc1 [Compound 35],< 1 µM
16,Cc1ncsc1-c1ccc([C@H](C)NC(=O)[C@@H]2C[C@@H](O)CN2C(=O)[C@@H](NC(=O)CCN2CCC(C#Cc3ccc(C(=O)NCCCn4cc(-c5ccc6c(c5)CCN6C(=O)Cc5cccc(OC(F)(F)F)c5)c5c(N)ncnc54)cc3)CC2)C(C)(C)C)cc1 [Compound 36],< 1 µM
17,Cc1ncsc1-c1ccc([C@H](C)NC(=O)[C@@H]2C[C@@H](O)CN2C(=O)[C@@H](NC(=O)CCN2CC3(CC(Oc4ccc(C(=O)NCCCn5cc(-c6ccc7c(c6)CCN7C(=O)Cc6cccc(OC(F)(F)F)c6)c6c(N)ncnc65)cn4)C3)C2)C(C)(C)C)cc1 [Compound 38],1 to 10 µM
